Four molecules from patent publication US20240418701A1, “SINGLE MOLECULE IDEN[…] A REACTIVE HETERO-NANOPORE” (priority 2021, published 2024) can be followed below.

The structures appear in SMILES notation. Where two headings read alike, the source gives them in different places.

In experiment [1] the target is T1, MspA-PBA (phenylboronic acid modified hetero-octameric (N90C)1(M2)7 MspA) (Mycolicibacterium smegmatis, UniProt A0QR29, D117C/D118N/D120N/D145R/D161R/E166K).
T1 construct: H6 (hexa-histidine) (C); 3-(maleimide) phenylboronic acid (MPBA) adduct on the thiol of Cys90; made in house; host or cells: E. coli BL21 (DE3) pLysS, co-expression from pETDuet-1
In kind it is binding, Mycobacterium smegmatis. The following applies: for % Ib (percentage blockage) / S.D. (noise amplitude of blockage level) / τoff (mean dwell time) / τon (mean inter-event interval): N=3; for Calibration coefficient δ (NMP binding events per unit concentration per min): sole NMP 300 μM in cis. How it is done:
FIG. 46: Definition of event parameters. […] The measurement was carried out as described in Methods in Example 2. The chambers were filled with a 1.5 M KCl buffer (1.5 M KCl, 10 mM MOPS, pH 7.0). A transmembrane potential of +200 mV was continually applied. AMP was added to cis with a final concentration of 300 μM. The open pore current (Ip), the residual current (Ib), the dwell time (τoff) and the inter-event duration (τon) are defined as marked on the trace. The percentage blockage (% Ib) is defined as (Ip−Ib)/Ip. The noise amplitude (S.D.) is defined as the standard deviation of the blockage level.
(§1) NMPs consist of a ribose, a phosphate group and a nucleobase, serving as monomeric units of RNA. […] Experimentally, single channel recording was performed using MspA-PBA in a 1.5 M KCl buffer (1.5 M KCl, 10 mM MOPS, pH 7.0) (Methods in Example 2). A transmembrane potential of +200 mV was continually applied. Four canonical NMPs, adenine mononucleotide (AMP), guanine mononucleotide (GMP), cytosine mononucleotide (CMP) and uracil mononucleotide (UMP) were tested as analytes (FIG. 33d). Either type of NMP was added to cis at a final concentration of 300 μM. Subsequently, successive resistive pulses caused by either type of NMP were immediately observed (FIG. 33d). However, no events were observed when M2 MspA was tested, confirming that the PBA located at the pore constriction is critical in the generation of NMP sensing events (FIG. 44). At this condition, ˜1800 events/h were obtained from each pore. The pore could normally withstand a few hours of continuous measurement. Deoxyribonucleoside monophosphate (dNMP) fails to report any event when sensed by MspA-PBA (FIG. 45). This is expected because dNMPs have no cis-diol structure and can't form the boronate ester which is necessary for sensing. The molecular mechanism of sensing which results from reversible covalent bond formation between an NMP and the PBA at the pore constriction is thus confirmed.
To describe NMP sensing events quantitatively, the event dwell time (τoff), the inter-event interval (τon), the percentage blockage (% Ib=(Ip−Ib)/Ip) and the noise amplitude (S.D.) were derived as described in FIG. 46. Generally, the histograms of τoff and τon show an exponential distribution, and could be fitted to derive the mean time constants τoff or τon, respectively. The histograms of % Ib and S.D. show a Gaussian distribution, which could be fitted to derive the mean percentage blockage % Ib and S.D., respectively. During NMP sensing, by varying the NMP concentrations in cis, the reciprocal of dwell time (1/τoff) remains constant, consistent with a unimolecular dissociation mechanism. Whereas the reciprocal of the inter-event interval (1/τon) linearly correlates with the NMP concentration in cis (Tables 8-11, FIG. 47-50), consistent with a bimolecular model. The dependence of the applied voltage during NMP sensing was investigated using AMP as a representative analyte. […] This is expected because in a pH 7.0 buffer, the phosphate group of NMP is negatively charged and the electrophoretic force applied on the NMP analyte can strongly regulate the rate of event appearance and the event dwell time.

In experiment [2] the target is M2 MspA (Mycolicibacterium smegmatis, UniProt A0QR29, D117N/D118N/D120N/D145R/D161R/E166K). In words: NMP sensing performed with M2 MspA (control without PBA). In kind it is binding, Mycobacterium smegmatis. The conditions noted are these: NMP 1 mM in cis, +200 mV. The protocol: FIG. 44: NMP sensing performed with M2 MspA. (a-d) Representative traces of (a) CMP, (b) UMP, (c) AMP, (d) GMP sensing performed with M2 MspA. All measurements were carried out as described in Methods in Example 2 in a 1.5 M KCl buffer (1.5 M KCl, 10 mM MOPS, pH 7.0). A +200 mV bias was continually applied. NMPs were added to cis with a final concentration of 1 mM for each analyte.
M2 MspA, sequence (A0QR29 28-211 D117N/D118N/D120N/D145R/D161R/E166K): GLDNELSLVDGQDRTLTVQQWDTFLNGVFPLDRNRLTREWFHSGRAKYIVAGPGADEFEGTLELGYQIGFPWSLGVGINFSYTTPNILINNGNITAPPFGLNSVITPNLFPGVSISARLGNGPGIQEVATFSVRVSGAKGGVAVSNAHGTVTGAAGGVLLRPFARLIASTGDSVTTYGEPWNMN
as §1

Setting [3] is: NMP 100 μM in cis, +200 mV, three independent measurements.
The mark [4] stands for this setting: NMP 200 μM in cis, +200 mV, three independent measurements.
Setting [5] is: NMP 300 μM in cis, +200 mV, three independent measurements.
Where [6] appears, read: NMP 400 μM in cis, +200 mV, three independent measurements.
[7] abbreviates: NMP 500 μM in cis, +200 mV, three independent measurements.
Where [8] appears, read: +200 mV, three independent measurements.
[9] abbreviates: voltage series: +40 mV, AMP 500 μM in cis.
Setting [10] is: voltage series: +80 mV, AMP 500 μM in cis.
The mark [11] stands for this setting: voltage series: +120 mV, AMP 500 μM in cis.
Where [12] appears, read: voltage series: +160 mV, AMP 500 μM in cis.
Where [13] appears, read: voltage series: +200 mV, AMP 500 μM in cis.

Consider `O=c1ccn([C@@H]2O[C@H](COP(=O)(O)O)[C@@H](O)[C@H]2O)c(=O)[nH]1` [UMP, uridine-5′-monophosphate], for which the 1/τoff in experiment [1] (setting [3]) turned out to be 7.8 ± 0.9 s⁻¹; in experiment [1] (setting [4]) it was 7.4 ± 1.4 s⁻¹; in experiment [1] (setting [5]), 7.7 ± 0.9 s⁻¹; in experiment [1] (setting [6]) it was 8.2 ± 0.4 s⁻¹; in experiment [1] (setting [7]), 8.7 ± 0.4 s⁻¹. Besides, the 1/τon in experiment [1] (setting [3]) is 0.28 ± 0.08 s⁻¹; in experiment [1] (setting [4]), 0.36 ± 0.02 s⁻¹; in experiment [1] (setting [5]) it was 0.49 ± 0.08 s⁻¹; in experiment [1] (setting [6]) it was 0.56 ± 0.11 s⁻¹; in experiment [1] (setting [7]), 0.68 ± 0.09 s⁻¹. Further, the “% Ib (percentage blockage)” value in experiment [1] (NMP 300 μM in cis, +200 mV) came out at 8.64±0.09%; in experiment [1] (NMP 300 μM in cis, +200 mV, listed as U) it was 8.64 ± 0.09%. For the same molecule, the “S.D. (noise amplitude of blockage level)” value in experiment [1] (NMP 300 μM in cis, +200 mV) is given as 2.14 ± 0.06 pA. Besides, the “τoff (mean dwell time)” value in experiment [1] (NMP 300 μM in cis, +200 mV) came to 130.3 ± 14.8 ms. Further, the “τon (mean inter-event interval)” value in experiment [1] (NMP 300 μM in cis, +200 mV) stood at 2097.9 ± 474.7 ms. The “Calibration coefficient δ (NMP binding events per unit concentration per min)” value in experiment [1] (setting [8]) stood at 0.097 ± 0.014 µM⁻¹ min⁻¹. The “binding events with M2 MspA” value in experiment [2] is listed as “No binding events were observed”.

As to `Nc1ccn([C@@H]2O[C@H](COP(=O)(O)O)[C@@H](O)[C@H]2O)c(=O)n1` [CMP, Cytidine-5′-monophosphate], the 1/τoff in experiment [1] (setting [3]) came out at 19.0 ± 1.9 s⁻¹; in experiment [1] (setting [4]), 20.9 ± 0.3 s⁻¹; in experiment [1] (setting [5]) it was 21.0 ± 0.4 s⁻¹; in experiment [1] (setting [6]), 20.5 ± 0.6 s⁻¹; in experiment [1] (setting [7]), 20.6 ± 1.1 s⁻¹. For the same molecule, the 1/τon in experiment [1] (setting [3]) turned out to be 0.30 ± 0.06 s⁻¹; in experiment [1] (setting [4]), 0.47 ± 0.05 s⁻¹; in experiment [1] (setting [5]), 0.66 ± 0.05 s⁻¹; in experiment [1] (setting [6]) it was 0.86 ± 0.05 s⁻¹; in experiment [1] (setting [7]), 1.01 ± 0.13 s⁻¹. Further, the “% Ib (percentage blockage)” value in experiment [1] (NMP 300 μM in cis, +200 mV) turned out to be 7.1±0.2%; in experiment [1] (NMP 300 μM in cis, +200 mV, listed as C), 7.1 ± 0.2%. The “S.D. (noise amplitude of blockage level)” value in experiment [1] (NMP 300 μM in cis, +200 mV) came to 3.23 ± 0.09 pA. Moreover, the “τoff (mean dwell time)” value in experiment [1] (NMP 300 μM in cis, +200 mV) is listed as 47.6 ± 0.9 ms. Moreover, the “τon (mean inter-event interval)” value in experiment [1] (NMP 300 μM in cis, +200 mV) is 1511.6 ± 108.3 ms. For the same molecule, the “Calibration coefficient δ (NMP binding events per unit concentration per min)” value in experiment [1] (setting [8]) turned out to be 0.133 ± 0.010 µM⁻¹ min⁻¹. The “binding events with M2 MspA” value in experiment [2] is “No binding events were observed”.

In the case of `Nc1ncnc2c1ncn2[C@@H]1O[C@H](COP(=O)(O)O)[C@@H](O)[C@H]1O` [AMP, adenosine-5′-monophosphate], the 1/τoff in experiment [1] (setting [3]) turned out to be 14.9 ± 0.5 s⁻¹; in experiment [1] (setting [4]) it was 15.1 ± 0.2 s⁻¹; in experiment [1] (setting [5]), 13.8 ± 0.4 s⁻¹; in experiment [1] (setting [6]), 14.6 ± 1.1 s⁻¹; in experiment [1] (setting [7]) it was 14.4 ± 1.8 s⁻¹; in experiment [1] (setting [9]), 30.5 ± 1.7 s⁻¹. The 1/τoff worked out at 27.6 ± 1.9 s⁻¹ in experiment [1] (setting [10]), 24.2 ± 2.1 s⁻¹ in experiment [1] (setting [11]), 18.0 ± 1.4 s⁻¹ in experiment [1] (setting [12]) and 14.5 ± 1.8 s⁻¹ in experiment [1] (setting [13]). For the same molecule, the 1/τon in experiment [1] (setting [3]) is 0.54 ± 0.11 s⁻¹; in experiment [1] (setting [4]) it was 0.82 ± 0.05 s⁻¹; in experiment [1] (setting [5]), 1.03 ± 0.11 s⁻¹; in experiment [1] (setting [6]), 1.19 ± 0.08 s⁻¹; in experiment [1] (setting [7]) it was 1.39 ± 0.07 s⁻¹; in experiment [1] (setting [9]) it was 0.45 ± 0.03 s⁻¹. The 1/τon was 0.71 ± 0.12 s⁻¹ in experiment [1] (setting [10]), 1.13 ± 0.08 s⁻¹ in experiment [1] (setting [11]), 1.23 ± 0.11 s⁻¹ in experiment [1] (setting [12]) and 1.38 ± 0.08 s⁻¹ in experiment [1] (setting [13]). Also, the “% Ib (percentage blockage)” value in experiment [1] (NMP 300 μM in cis, +200 mV) worked out at 10.89±0.14%; in experiment [1] (NMP 300 μM in cis, +200 mV, listed as A), 10.89 ± 0.14%. The “S.D. (noise amplitude of blockage level)” value in experiment [1] (NMP 300 μM in cis, +200 mV) came to 3.14 ± 0.14 pA. The “τoff (mean dwell time)” value in experiment [1] (NMP 300 μM in cis, +200 mV) is reported as 72.76 ± 2.07 ms. For the same molecule, in experiment [1] (NMP 300 μM in cis, +200 mV), the “τon (mean inter-event interval)” value is recorded as 979.5 ± 106.1 ms. Also, the “sensing events with MspA-PBA” value in experiment [1] (analyte 1 mM in cis, +200 mV) is listed as “Successive appearance of AMP sensing events was observed”. Moreover, the “Calibration coefficient δ (NMP binding events per unit concentration per min)” value in experiment [1] (setting [8]) was found to be 0.21 ± 0.02 µM⁻¹ min⁻¹. Further, in experiment [2], the “binding events with M2 MspA” value was “No binding events were observed”.

As to `Nc1nc2c(ncn2[C@@H]2O[C@H](COP(=O)(O)O)[C@@H](O)[C@H]2O)c(=O)[nH]1` [GMP, guanosine-5′-monophosphate], the 1/τoff in experiment [1] (setting [3]) worked out at 11.5 ± 0.9 s⁻¹; in experiment [1] (setting [4]), 10.6 ± 1.4 s⁻¹; in experiment [1] (setting [5]), 10.5 ± 1.1 s⁻¹; in experiment [1] (setting [6]), 10.2 ± 0.2 s⁻¹; in experiment [1] (setting [7]) it was 11.4 ± 1.3 s⁻¹. Further, the 1/τon in experiment [1] (setting [3]) worked out at 0.02 ± 0.07 s⁻¹; in experiment [1] (setting [4]), 0.50 ± 0.12 s⁻¹; in experiment [1] (setting [5]), 0.68 ± 0.02 s⁻¹; in experiment [1] (setting [6]), 0.83 ± 0.04 s⁻¹; in experiment [1] (setting [7]), 1.00 ± 0.04 s⁻¹. The “% Ib (percentage blockage)” value is recorded as 11.8±0.2% in experiment [1] (NMP 300 μM in cis, +200 mV) and 11.8 ± 0.2% in experiment [1] (NMP 300 μM in cis, +200 mV, listed as G). The “S.D. (noise amplitude of blockage level)” value in experiment [1] (NMP 300 μM in cis, +200 mV) turned out to be 3.02 ± 0.13 pA. Besides, the “τoff (mean dwell time)” value in experiment [1] (NMP 300 μM in cis, +200 mV) is 96.3 ± 10.4 ms. Also, the “τon (mean inter-event interval)” value in experiment [1] (NMP 300 μM in cis, +200 mV) is 1473.1 ± 44.4 ms. Also, the “Calibration coefficient δ (NMP binding events per unit concentration per min)” value in experiment [1] (setting [8]) worked out at 0.136 ± 0.004 µM⁻¹ min⁻¹. In addition, the “binding events with M2 MspA” value in experiment [2] is reported as “No binding events were observed”.
